{"source": "paper PMC12582985", "about": "“Preparation and characterization of renal cell peptides from fetal rats for their antitumor activity” (FEBS Open Bio, 2025)", "key": {"Hela cells": {"system": "Hela cells", "test": "CCK‐8 cell viability assay, Hela", "format": "cell-based, human", "settings": "CCK‐8, 48 h, triplicate; peptides 5–45 μg·mL^−1; 5‐FU positive control 0.1–5 mM; vs negative control", "source_text": "(§1) Human breast cancer MCF‐7 (RRID:CVCL_0031), human lung cancer A549 (RRID:CVCL_0023), human colon cancer HCT‐116 (RRID:CVCL_0291), human cervical cancer Hela (RRID:CVCL_0030), human hepatoma HepG2 (RRID:CVCL_0027), human gastric cancer SGC‐7901 (RRID:CVCL_0520) and human non‐tumor mamma gland epithelial MCF‐10A (RRID:CVCL_0598) and transformed human liver epithelial‐2 (THLE‐2) (RRID:CVCL_3803) cells were obtained from Shanghai Donghuan Biotechnology (Shanghai, China). All cell lines had been authenticated in the past 3 years and again within 4 months after completion of the experiments. All cell lines had been tested for mycoplasma contamination frequently. Their identities were characterized by short tandem repeat analysis. All of these cell lines were cultured in high glucose Dulbecco's modified Eagle's medium supplemented by 10% fetal bovine serum, 100 units·mL^−1 penicillin and 100 μg·mL^−1 streptomycin (complete culture medium).\n(§2) MCF‐7 cells (1 × 10^4 cells per well) were treated in triplicate with different doses of each type of RC extract in 96‐well plates for varying time periods. The negative control cells were treated with the diluent of physiological saline, whereas positive control cells were treated with different concentrations (0.1–5 mM) of 5‐fluorouracil (5‐FU) (Leica, Wetzlar, Germany). During the last hour of culture, each well of cells was treated with 10 μL of CCK‐8 solution. The absorbance of the supernatants of individual wells was measured at 450 nm using a microplate reader. Similarly, the effect of different synthesized RCPs (5–45 μg·mL^−1) on the viability of different types of human cancer cells was tested with CCK‐8 assays using the diluent of physiological saline containing the same concentration of dimethylsulfoxide as a negative control and the same concentrations of 5‐FU as the positive controls. Ten RCPs with a predicted strong bioactivity were synthesized by GenScript ([…]) and their purity, sequences and solubility are shown in Table 1. […] The formula used to calculate the cytotoxicity rate of each concentration of RCP was: Cytotoxicity rate (%) = (absorbance value of the control group − absorbance value of the experimental group)/absorbance value of the control group × 100%. In addition, MCF‐7 cells were treated with each type of RCP at 45 μg·mL^−1 for 12–72 h and the dynamic impact of RCP treatment on the viability of MCF‐7 cells was determined every 12 h using CCK‐8 assays.\n(§3) Data are expressed as the mean ± SEM. The data distribution was analyzed by Shapiro–Wilk test. The IC50 values of each peptide for individual cell lines were determined using the PRISM, version 8 (GraphPad Software Inc.). Briefly, all dose–response data were converted into […], which were automatically analyzed by PRISM for non‐linear regression to determine and report the IC50 and its SD for each peptide in a specific cell line. The difference among groups was analyzed by analysis of variance and post‐hoc Tukey's tests and the comparison between groups was performed using Student's t‐test and PRISM, version 8 (GraphPad Software Inc.). P < 0.05 was considered statistically significant."}, "[1]": {"test": "Solubility of the synthesized peptides", "format": "physicochemical", "settings": "for Solubility: solvent given for the synthesized peptide (GenScript)"}, "[2]": {"system": "cancer cells (MCF‐7, A549, HCT‐116, Hela, HepG2, SGC‐7901) vs non‐tumor MCF‐10A and THLE‐2 cells", "test": "CCK‐8 cytotoxicity, preference for cancer cells over non‐tumor cells", "format": "cell-based, human", "parameters": "cytotoxicity against non‐tumor MCF‐10A and THLE‐2 cells compared with tumor cell lines: dose or concentration left out as unconfirmed", "settings": "for preference of cytotoxicity for cancer cells over non‐tumor cells: 5–45 μg·mL^−1, 48 h, CCK‐8", "source_text": "as §1, §2, §3"}, "MCF‐10A cells": {"system": "MCF‐10A cells", "test": "CCK‐8 cell viability assay, non‐tumor MCF‐10A", "format": "cell-based, human", "settings": "CCK‐8, 48 h, triplicate; peptides 5–45 μg·mL^−1; 5‐FU positive control 0.1–5 mM; vs negative control", "source_text": "as §1, §2, §3"}, "MCF‐7 cells": {"system": "MCF‐7 cells", "test": "CCK‐8 cell viability assay, MCF‐7", "format": "cell-based, human", "settings": "for viability of MCF‐7 cells: CCK‐8, 48 h, triplicate, peptides 5–45 μg·mL^−1, 5‐FU positive control 0.1–5 mM, vs negative control", "source_text": "as §1, §2, §3"}, "SGC‐7901 cells": {"system": "SGC‐7901 cells", "test": "CCK‐8 cell viability assay, SGC‐7901", "format": "cell-based, human", "settings": "CCK‐8, 48 h, triplicate; peptides 5–45 μg·mL^−1; 5‐FU positive control 0.1–5 mM; vs negative control", "source_text": "as §1, §2, §3"}, "HepG2 cells": {"system": "HepG2 cells", "test": "CCK‐8 cell viability assay, HepG2", "format": "cell-based, human", "settings": "CCK‐8, 48 h, triplicate; peptides 5–45 μg·mL^−1; 5‐FU positive control 0.1–5 mM; vs negative control", "source_text": "as §1, §2, §3"}, "A549 cells": {"system": "A549 cells", "test": "CCK‐8 cell viability assay, A549", "format": "cell-based, human", "settings": "CCK‐8, 48 h, triplicate; peptides 5–45 μg·mL^−1; 5‐FU positive control 0.1–5 mM; vs negative control", "source_text": "as §1, §2, §3"}, "HCT‐116 cells": {"system": "HCT‐116 cells", "test": "CCK‐8 cell viability assay, HCT‐116", "format": "cell-based, human", "settings": "CCK‐8, 48 h, triplicate; peptides 5–45 μg·mL^−1; 5‐FU positive control 0.1–5 mM; vs negative control", "source_text": "as §1, §2, §3"}, "THLE‐2 cells": {"system": "THLE‐2 cells", "test": "CCK‐8 cell viability assay, non‐tumor THLE‐2", "format": "cell-based, human", "settings": "CCK‐8, 48 h, triplicate; peptides 5–45 μg·mL^−1; 5‐FU positive control 0.1–5 mM; vs negative control", "source_text": "as §1, §2, §3"}}, "data": [{"sequence": "RFFESFGDL [RCP‐7, synthesized 9‐mer renal cell peptide from GLOBIN domain‐containing protein, protamex‐digested]", "values": [{"measurement": "viability of Hela cells", "setting": "Hela cells", "value": "decreased the viability"}, {"measurement": "Solubility", "setting": "[1]", "value": 0.1, "unit": "% Dimethylsulfoxide"}, {"measurement": "preference of cytotoxicity for cancer cells over non‐tumor cells", "setting": "[2]", "value": "did not preferably decrease the viability of tumor cells"}, {"measurement": "viability of non‐tumor MCF‐10A cells", "setting": "MCF‐10A cells", "value": "decreased the viability"}, {"measurement": "viability of MCF‐7 cells", "setting": "MCF‐7 cells", "value": "decreased the viability"}, {"measurement": "viability of SGC‐7901 cells", "setting": "SGC‐7901 cells", "value": "decreased the viability"}, {"measurement": "viability of HepG2 cells", "setting": "HepG2 cells", "value": "decreased the viability"}, {"measurement": "viability of A549 cells", "setting": "A549 cells", "value": "decreased the viability"}, {"measurement": "viability of HCT‐116 cells", "setting": "HCT‐116 cells", "value": "decreased the viability"}, {"measurement": "viability of non‐tumor THLE‐2 cells", "setting": "THLE‐2 cells", "value": "decreased the viability"}]}, {"sequence": "SSGCPPLPPRRGAPAGWLSH [RCP‐2, synthesized 20‐mer renal cell peptide from Brain‐derived neurotrophic factor, trypsin digested]", "values": [{"measurement": "viability of Hela cells", "setting": "Hela cells", "value": "decreased the viability"}, {"measurement": "Solubility", "setting": "[1]", "value": "Water, pH 7.0"}, {"measurement": "preference of cytotoxicity for cancer cells over non‐tumor cells", "setting": "[2]", "value": "did not preferably decrease the viability of tumor cells"}, {"measurement": "viability of non‐tumor MCF‐10A cells", "setting": "MCF‐10A cells", "value": "decreased the viability"}, {"measurement": "viability of MCF‐7 cells", "setting": "MCF‐7 cells", "value": "decreased the viability"}, {"measurement": "viability of SGC‐7901 cells", "setting": "SGC‐7901 cells", "value": "decreased the viability"}, {"measurement": "viability of HepG2 cells", "setting": "HepG2 cells", "value": "decreased the viability"}, {"measurement": "viability of A549 cells", "setting": "A549 cells", "value": "decreased the viability"}, {"measurement": "viability of HCT‐116 cells", "setting": "HCT‐116 cells", "value": "decreased the viability"}, {"measurement": "viability of non‐tumor THLE‐2 cells", "setting": "THLE‐2 cells", "value": "decreased the viability"}]}, {"sequence": "VCMRVCRTWSRWCYDKRLWP [RCP‐5, synthesized 20‐mer renal cell peptide from F‐box and leucine‐rich repeat protein 19, trypsin digested]", "values": [{"measurement": "viability of Hela cells", "setting": "Hela cells", "value": "significantly decreased the viability"}, {"measurement": "aqueous solubility", "setting": "[1]; in words", "value": "low aqueous solubility"}, {"measurement": "Solubility", "setting": "[1]", "value": 0.1, "unit": "% Dimethylsulfoxide"}, {"measurement": "preference of cytotoxicity for cancer cells over non‐tumor cells", "setting": "[2]", "value": "potent cytotoxicity preferably against cancer cells"}, {"measurement": "cytotoxicity against non‐tumor MCF‐10A and THLE‐2 cells compared with tumor cell lines", "setting": "[2]; 48 h, P < 0.05 or P < 0.01", "value": "statistically lower than tumor cell lines"}, {"measurement": "viability of non‐tumor MCF‐10A cells", "setting": "MCF‐10A cells", "value": "only treatment with the highest doses of them slightly reduced the viability"}, {"measurement": "dynamic cytotoxicity against MCF‐7 cells", "setting": "MCF‐7 cells; 45 μg·mL^−1, 12–72 h, CCK‐8 every 12 h, maintained at highest levels to 72 h", "value": "increased with time from 12 h post treatment to 48 h"}, {"measurement": "viability of MCF‐7 cells", "setting": "MCF‐7 cells", "value": "significantly decreased the viability"}, {"measurement": "viability of SGC‐7901 cells", "setting": "SGC‐7901 cells", "value": "significantly decreased the viability"}, {"measurement": "viability of HepG2 cells", "setting": "HepG2 cells", "value": "significantly decreased the viability"}, {"measurement": "viability of A549 cells", "setting": "A549 cells", "value": "significantly decreased the viability"}, {"measurement": "viability of HCT‐116 cells", "setting": "HCT‐116 cells", "value": "significantly decreased the viability"}, {"measurement": "viability of non‐tumor THLE‐2 cells", "setting": "THLE‐2 cells", "value": "only treatment with the highest doses of them slightly reduced the viability"}]}]}
